The text below walks through data of patent US10919896B2, “Preparation and uses of pyrimidinone derivatives” (Cancer Research Technology Limited, priority 2016, dated 2021).

Test [1] concerns Cdc7 (pS53MCM2 levels in HCT116 cells). Briefly: Cdc7 Cell Pharmacodynamics Assay Method 1: pS53MCM2 levels in HCT116 cells, 6 hours. The format is cell-based. To be noted: Homo sapiens, HCT-116, 6 h, read-out: Biomarker Method 1 (pEC50) (converted). Summed up: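 HCT116 cells (wild-type p53), 20,000 per well in McCoys 5A with 10% FCS, treated with compound for 6 h at 37 °C. Lysates captured on total-MCM2 antibody and probed with anti-pMCM2 Ser53 plus HRP secondary; chemiluminescent read-out of pS53MCM2 levels.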

A further test addresses Cdc7/ASK (Homo sapiens, UniProt O00311). Briefly: Cdc7 Biochemical Assay Method 2: 384 well mobility shift assay (EZ Reader II), MCM2 peptide substrate. Set-up: purchased. To be noted: 12.5 μM ATP, read-out: Biochemical Method 2 (pIC50) (converted). As for the experimental part: This protocol describes a method for assaying Cdc7/ASK for activity. The assay is a 384 well mobility shift assay (MSA) run on the EZ Reader II microfluidics plate reader (Caliper LifeSciences), utilising a peptide substrate based on the MCM2 sequence. The assay technology is based on the change in mobility between the peptide substrate and the phosphorylated product. A 10 nL volume of the reaction mixture is sipped onto the microfluidic chip where the substrate and product are separated by electrophoresis and detected via laser-induced fluorescence (488 nm LED). The reaction can be monitored in real-time for kinetic experiments or as an end-point for IC50 determinations. The % conversion of substrate is calculated from peak heights of product (P) and substrate (S) peptides (% conversion=P/(P+S)*100).
• 10× Assay Buffer: 200 mM HEPES pH 8, 100 mM MgCl2, 0.1% v/v Triton X-100 and 15 mM DTT. Prepare fresh buffer from 1 M HEPES pH 8, 1 M MgCl2, 1 M DTT and 10% Triton x-100 stocks for each experiment. • Cdc7/ASK is purchased from commercial suppliers and used in the assay at a final assay concentration of 0.847 ng/μL or 9.2 nM. • MCM2 peptide is purchased from commercial suppliers and used in the assay at a final assay concentration of 2.5 μM. • ATP used in the assay at a final assay concentration of 12.5 μM. Methods • 1. Prepare intermediate (daughter) compound plate by transferring 2 μL of compound from the mother plate to 18 μL of 33.3% DMSO in a clear polypropylene plate. • 2. Dry-spot 1 μL of compound from the intermediate compound plate to empty assay plate. • 3. Add 5 μL of 1.694 ng/μL CDC7/ASK working solution to ‘test’ and ‘control’ wells or […] of 2× Assay Buffer to ‘blank’ wells. • 4. Add 4 μL 2.5 μM peptide/12.5 μM ATP working solution to all wells. • 5. Incubate at 37° C. for 1 hour then remove from the incubator and leave for a further 1 hour at room temperature. • 6. Place plate into an EZReader II to read.
Percentage inhibition values were calculated from % of substrate conversion values, using the no compound (DMSO) and no enzyme control values as 0% and 100% inhibition, respectively. IC50 determination was performed with ExcelFit software (IDBS) using curve fit 205. Z′ factors were determined for each plate tested and were all above 0.5.

Cdc7/ASK, sequence (O00311 whole entry): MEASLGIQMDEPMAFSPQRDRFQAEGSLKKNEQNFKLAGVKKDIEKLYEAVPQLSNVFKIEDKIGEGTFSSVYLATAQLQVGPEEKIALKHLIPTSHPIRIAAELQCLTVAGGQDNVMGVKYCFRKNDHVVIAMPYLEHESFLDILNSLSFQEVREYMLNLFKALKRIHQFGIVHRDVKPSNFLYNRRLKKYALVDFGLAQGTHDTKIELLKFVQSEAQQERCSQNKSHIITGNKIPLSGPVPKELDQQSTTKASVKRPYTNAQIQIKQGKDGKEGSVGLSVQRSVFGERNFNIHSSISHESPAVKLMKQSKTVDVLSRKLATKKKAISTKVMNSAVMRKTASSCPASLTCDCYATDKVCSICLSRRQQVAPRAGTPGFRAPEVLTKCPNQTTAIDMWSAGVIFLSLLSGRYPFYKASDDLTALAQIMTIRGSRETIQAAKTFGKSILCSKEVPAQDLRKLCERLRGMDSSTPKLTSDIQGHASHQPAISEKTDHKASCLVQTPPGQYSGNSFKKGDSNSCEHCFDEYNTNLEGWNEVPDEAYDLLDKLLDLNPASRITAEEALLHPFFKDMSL
Cdc7/ASK, sequence (Q9UBU7 whole entry partner): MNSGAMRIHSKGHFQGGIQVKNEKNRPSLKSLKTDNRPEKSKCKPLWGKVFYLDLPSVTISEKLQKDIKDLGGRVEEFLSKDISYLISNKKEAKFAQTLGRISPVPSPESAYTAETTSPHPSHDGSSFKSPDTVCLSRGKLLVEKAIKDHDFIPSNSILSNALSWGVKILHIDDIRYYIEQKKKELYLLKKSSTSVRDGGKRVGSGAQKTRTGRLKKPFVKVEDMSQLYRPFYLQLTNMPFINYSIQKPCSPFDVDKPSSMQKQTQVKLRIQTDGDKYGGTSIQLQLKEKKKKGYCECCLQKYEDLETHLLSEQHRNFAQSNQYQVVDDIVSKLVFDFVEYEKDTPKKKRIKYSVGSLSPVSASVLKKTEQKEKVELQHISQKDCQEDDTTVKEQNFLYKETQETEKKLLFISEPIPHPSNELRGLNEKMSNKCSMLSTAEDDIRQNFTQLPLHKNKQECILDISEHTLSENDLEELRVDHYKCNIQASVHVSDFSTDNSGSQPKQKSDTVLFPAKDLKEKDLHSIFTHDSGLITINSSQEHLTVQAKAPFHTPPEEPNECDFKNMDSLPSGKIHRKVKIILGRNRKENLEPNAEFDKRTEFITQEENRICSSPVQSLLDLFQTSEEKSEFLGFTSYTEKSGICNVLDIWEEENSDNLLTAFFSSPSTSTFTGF

As to `C[C@@H]1CNCCN1c1nc(-c2ccncc2)[nH]c(=O)c1Cl` [Compound 364], the EC50 in test [1] is 20.4 nM. Besides, the IC50 on Cdc7/ASK was 0.501 nM. In the case of `C[C@H]1CN(c2nc(-c3ccncc3)[nH]c(=O)c2Cl)CCN1` [Compound 130], the EC50 in test [1] was 107 nM. With `CC(C)[C@H]1CN(c2nc(-c3ccncc3)[nH]c(=O)c2F)CCN1` [Compound 308], the EC50 in test [1] was 178 nM. Also, on Cdc7/ASK, the IC50 was 0.912 nM.

With `O=c1[nH]c(-c2ccncc2)nc(N2CCN(CC(F)F)CC2)c1Cl` [Compound 147], the EC50 in test [1] is 115 nM. For the compound `C[C@@H]1CNCCN1c1nc(-c2ccnc(F)c2)[nH]c(=O)c1Cl` [Compound 323], the EC50 in test [1] was 22.4 nM. For the same compound, on Cdc7/ASK, the IC50 is 0.575 nM. As to `O=c1[nH]c(-c2ccnc(F)c2)nc(N2CCCC(F)(F)C2)c1Cl` [Compound 90, 5-chloro-4-(3,3-difluoro-1-piperidyl)-2-(2-fluoro-4-pyridyl)-1H-pyrimidin-6-one], the EC50 in test [1] is 33.1 nM. For `CC(C)[C@H]1CN(c2nc(-c3ccnc(F)c3)[nH]c(=O)c2Cl)CCN1` [Compound 170], in test [1], the EC50 was 31.6 nM. The IC50 on Cdc7/ASK was 1.17 nM. `N[C@H]1CCCN(c2nc(-c3ccnc(F)c3)[nH]c(=O)c2Cl)C1` [Compound 317]: the EC50 in test [1] was 97.7 nM. The IC50 at Cdc7/ASK is 1.02 nM. For `NC[C@H]1CCCN(c2nc(-c3ccnc(F)c3)[nH]c(=O)c2Cl)C1` [Compound 362], the EC50 in test [1] is 302 nM. On Cdc7/ASK, the IC50 is 0.741 nM. In the case of `CC(C)(C)[C@H]1CN(c2nc(-c3ccncc3)[nH]c(=O)c2F)CCN1` [Compound 185], the EC50 in test [1] was 85.1 nM. Besides, the IC50 at Cdc7/ASK was 0.776 nM. With `O=c1[nH]c(-c2ccnc(F)c2)nc(N2CCOCC2)c1Cl` [Compound 316], the EC50 in test [1] was 39.8 nM.

Regarding `O=c1[nH]c(-c2ccnc(F)c2)nc(N2CCNCC2)c1Cl` [Compound 360], in test [1], the EC50 is 57.5 nM. As for `N[C@@H]1CCCN(c2nc(-c3ccnc(F)c3)[nH]c(=O)c2Cl)C1` [Compound 319], the EC50 in test [1] is 74.1 nM. In addition, on Cdc7/ASK, the IC50 was 1.51 nM.

As for `O=c1[nH]c(-c2ccncc2)nc(N2CCN[C@H](C(F)(F)F)C2)c1Cl` [Compound 139], in test [1], the EC50 is 324 nM. With `O=c1[nH]c(-c2ccncc2)nc(N2CCN[C@@H](C(F)(F)F)C2)c1Cl` [Compound 180], the EC50 in test [1] was 26.9 nM. Take `O=c1[nH]c(-c2ccncc2)nc(N2CCCOCC2)c1Cl` [Compound 186]: the EC50 in test [1] is 347 nM. Further, the IC50 on Cdc7/ASK is 3.89 nM. With `O=c1[nH]c(-c2ccnc(F)c2)nc(N2CCN[C@@H](C(F)(F)F)C2)c1Cl` [Compound 314], the EC50 in test [1] was 12.3 nM. The IC50 on Cdc7/ASK was 0.575 nM.

In the case of `NC[C@@H]1CCCN(c2nc(-c3ccnc(F)c3)[nH]c(=O)c2Cl)C1` [Compound 363], in test [1], the EC50 is 794 nM. Moreover, the IC50 at Cdc7/ASK is 1.78 nM.
